Here are results for two compounds from paper PMC6467995, “Phosphoregulation of the oncogenic protein regulator of cytokinesis 1 (PRC1) by the atypical CDK16/CCNY complex” (Experimental & Molecular Medicine, 2019).

The structures appear in SMILES notation.

Holding throughout (assay type): biochemical
Assay [1] concerns the target T1, CDK16 (WT-GST-CDK16) (Homo sapiens, UniProt Q00536).
T1 construct: N-terminal GST fusion, full-length, purified from E. coli; with CCNY
Kind of assay: in vitro kinase assay, thiophosphate transfer to CCNY.

The target of assay [2] is T1, CDK16 (WT-GST-CDK16). Kind of assay: in vitro kinase assay with [γ-32P]-ATP, dose response.
Assay [3] concerns the target T2, CDK16 (analog-sensitive, AS-GST-CDK16) (Homo sapiens, UniProt Q00536, F240G).
T2 construct: N-terminal GST fusion, full-length, purified from E. coli; with CCNY
The description is as above.

T1 sequence (Q00536 whole entry, the tested form may be a part): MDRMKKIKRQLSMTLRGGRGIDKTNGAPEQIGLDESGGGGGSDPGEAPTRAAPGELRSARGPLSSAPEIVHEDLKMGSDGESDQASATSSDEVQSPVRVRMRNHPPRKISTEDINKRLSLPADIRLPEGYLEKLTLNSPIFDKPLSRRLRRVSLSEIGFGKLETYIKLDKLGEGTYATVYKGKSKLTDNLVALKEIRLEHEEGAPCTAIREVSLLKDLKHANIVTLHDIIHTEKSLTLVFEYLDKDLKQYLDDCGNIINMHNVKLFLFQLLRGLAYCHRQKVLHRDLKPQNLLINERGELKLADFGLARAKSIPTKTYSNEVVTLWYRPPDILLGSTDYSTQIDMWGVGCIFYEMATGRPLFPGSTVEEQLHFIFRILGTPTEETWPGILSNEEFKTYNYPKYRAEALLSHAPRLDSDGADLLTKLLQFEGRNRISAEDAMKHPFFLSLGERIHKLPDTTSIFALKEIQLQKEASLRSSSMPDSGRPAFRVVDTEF
T1 sequence (Q8ND76 2-341 partner): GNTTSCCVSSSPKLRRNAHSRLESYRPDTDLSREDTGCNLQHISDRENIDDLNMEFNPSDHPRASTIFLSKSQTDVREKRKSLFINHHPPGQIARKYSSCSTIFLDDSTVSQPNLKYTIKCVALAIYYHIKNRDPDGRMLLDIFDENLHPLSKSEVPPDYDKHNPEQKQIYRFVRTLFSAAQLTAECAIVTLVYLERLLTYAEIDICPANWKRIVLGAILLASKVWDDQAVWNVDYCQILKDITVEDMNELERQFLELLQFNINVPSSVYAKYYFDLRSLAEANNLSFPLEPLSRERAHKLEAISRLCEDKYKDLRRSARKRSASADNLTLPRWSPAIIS
T2 sequence (Q00536 whole entry F240G, the tested form may be a part): as the sequence (Q00536 whole entry, the tested form may be a part) above, with F240G counted along it
T2 sequence (Q8ND76 2-341 partner): as the sequence (Q8ND76 2-341 partner) above

`Nc1ncnc2c1ncn2[C@@H]1O[C@H](CO[P@](=O)(O)O[P@](=O)(O)O[P@@](=O)(O)S)[C@@H](O)[C@H]1O` [ATPγS]: the “in vitro kinase assay, thiophosphate transfer to CCNY” value in assay [1] is listed as “WT-CDK16 used ATPγS to phosphorylate GST-CCNY, it could not use the N^6-modified bulky forms”. In the case of `Cc1cccc(Cc2nn(C(C)(C)C)c3ncnc(N)c23)c1` [3MBPP1, 1-(tert-butyl)-3-(3-methylbenzyl)-1H-pyrazolo[3,4-d]pyrimidin-4-amine], the IC50 (in general, the concentration at which inhibition is half-maximal) worked out at 4400 nM in assay [2] and 1230 nM in assay [3].
